Laboratory results reported in patent US20250230154A1, “COMPOUND HAVING SHP2 PROTEIN DEGRADING ACTIVITY, AND MEDICAL USES THEREOF” (UBIX THERAPEUTICS, INC., priority 2021, published 2025).

Target: T1, SHP2 protein (Homo sapiens, UniProt Q06124)
T1 sequence (Q06124 1-593): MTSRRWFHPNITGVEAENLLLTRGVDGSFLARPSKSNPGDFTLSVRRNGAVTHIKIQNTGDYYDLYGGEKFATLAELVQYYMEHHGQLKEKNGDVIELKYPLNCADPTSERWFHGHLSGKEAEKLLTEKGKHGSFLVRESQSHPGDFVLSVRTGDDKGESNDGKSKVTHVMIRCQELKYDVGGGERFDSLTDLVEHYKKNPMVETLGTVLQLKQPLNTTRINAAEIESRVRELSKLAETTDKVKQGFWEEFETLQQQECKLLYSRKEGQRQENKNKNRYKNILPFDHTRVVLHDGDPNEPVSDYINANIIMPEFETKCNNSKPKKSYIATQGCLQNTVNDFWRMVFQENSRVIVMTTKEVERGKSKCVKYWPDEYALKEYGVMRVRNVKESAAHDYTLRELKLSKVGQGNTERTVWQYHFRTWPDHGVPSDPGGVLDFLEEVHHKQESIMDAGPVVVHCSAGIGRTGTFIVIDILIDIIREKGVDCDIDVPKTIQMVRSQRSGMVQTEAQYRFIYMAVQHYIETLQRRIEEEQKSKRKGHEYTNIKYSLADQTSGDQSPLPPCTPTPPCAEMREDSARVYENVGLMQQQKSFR
Experiment: Measurement of SHP2 protein degradation in KYSE-520 cells (western blotting)
Format: cell-based
Set-up: endogenous in cells
Conditions: 24 hours

SMILES	SHP2 degradation (%) 10 nM	SHP2 degradation (%) 100 nM	SHP2 degradation (%) 1000 nM
Cc1ncsc1-c1ccc(CNC(=O)[C@@H]2C[C@@H](O)CN2C(=O)[C@@H](NC(=O)C2(F)CC2)C(C)(C)C)c(OCCCCN2CCC(CCC(=O)Nc3cccc(Sc4cnc(N5CCC(C)(CN)CC5)cn4)c3Cl)CC2)c1 [Example 15, (2S,4R)—N-(2-(4-(4-(3-((3-((5-(4-(aminomethyl)-4-methylpiperidin-1-yl)pyrazin-2-yl)thio)-2-chlorophenyl)amino)-3-oxopropyl)piperidin-1-yl)butoxy)-4-(4-methylthiazol-5-yl)benzyl)-1-((S)-2-(1-fluorocyclopropane-1-carboxamido)-3,3-dimethylbutanoyl)-4-hydroxypyrrolidine-2-carboxamide]	21.7%	58.3%	74.6%
Cc1ncsc1-c1ccc(CNC(=O)[C@@H]2C[C@@H](O)CN2C(=O)[C@@H](NC(=O)C2(F)CC2)C(C)(C)C)c(OCCCC(=O)N2CCC(C(=O)Nc3cccc(Sc4cnc(N5CCC(C)(CN)CC5)cn4)c3Cl)CC2)c1 [Example 21, N-(3-((5-(4-(aminomethyl)-4-methylpiperidin-1-yl)pyrazin-2-yl)thio)-2-chlorophenyl)-1-(4-(2-(((2S,4R)-1-((S)-2-(1-fluorocyclopropane-1-carboxamido)-3,3-dimethylbutanoyl)-4-hydroxypyrrolidine-2-carboxamido)methyl)-5-(4-methylthiazol-5-yl)phenoxy)butanoyl)piperidine-4-carboxamide]	11.7%	51.7%	66.6%
Cc1ncsc1-c1ccc(CNC(=O)[C@@H]2C[C@@H](O)CN2C(=O)[C@@H](NC(=O)C2(F)CC2)C(C)(C)C)c(OCCN2CCC(CC(=O)Nc3cccc(Sc4cnc(N5CCC(C)(CN)CC5)cn4)c3Cl)CC2)c1 [Example 5, (2S,4R)—N-(2-(2-(4-(2-((3-((5-(4-(aminomethyl)-4-methylpiperidin-1-yl)pyrazin-2-yl)thio)-2-chlorophenyl)amino)-2-oxoethyl)piperidin-1-yl)ethoxy)-4-(4-methylthiazol-5-yl)benzyl)-1-((S)-2-(1-fluorocyclopropane-1-carboxamido)-3,3-dimethylbutanoyl)-4-hydroxypyrrolidine-2-carboxamide]	3.4%	56.7%	90.6%
Cc1ncsc1-c1ccc(CNC(=O)[C@@H]2C[C@@H](O)CN2C(=O)[C@@H](NC(=O)C2(F)CC2)C(C)(C)C)c(OCCCCCCN2CC(C(=O)Nc3cccc(Sc4cnc(N5CCC(C)(CN)CC5)cn4)c3Cl)C2)c1 [Example 19, (2S,4R)—N-(2-((6-(3-((3-((5-(4-(aminomethyl)-4-methylpiperidin-1-yl)pyrazin-2-yl)thio)-2-chlorophenyl)carbamoyl)azetidin-1-yl)hexyl)oxy)-4-(4-methylthiazol-5-yl)benzyl)-1-((S)-2-(1-fluorocyclopropane-1-carboxamido)-3,3-dimethylbutanoyl)-4-hydroxypyrrolidine-2-carboxamide]	–	31.5%	78.0%
Cc1ncsc1-c1ccc(CNC(=O)[C@@H]2C[C@@H](O)CN2C(=O)[C@@H](NC(=O)C2(F)CC2)C(C)(C)C)c(OCCCN2CCC(CCC(=O)Nc3cccc(Sc4cnc(N5CCC(C)(CN)CC5)cn4)c3Cl)CC2)c1 [Example 14, (2S,4R)—N-(2-(3-(4-(3-((3-((5-(4-(aminomethyl)-4-methylpiperidin-1-yl)pyrazin-2-yl)thio)-2-chlorophenyl)amino)-3-oxopropyl)piperidin-1-yl)propoxy)-4-(4-methylthiazol-5-yl)benzyl)-1-((S)-2-(1-fluorocyclopropane-1-carboxamido)-3,3-dimethylbutanoyl)-4-hydroxypyrrolidine-2-carboxamide]	14.2%	60.1%	69.1%
